Source: patent publication US10662193B2, “Carbazole and carboline compounds for use in the diagnosis, treatment, alleviation or prevention of disorders associated with amyloid or amyloid-like proteins” (AC IMMUNE SA, priority 2014, dated 2020)
Where two headings read alike, the source gives them in different places.

Tests used:
Format in all cases: binding
[1] = tested on: Aβ plaques on AD brain section; test: Assay 1: displacement of Compound B on human AD brain sections (fluorescence)
Protocol: Direct Binding of Compounds of this Invention to Human Alzheimer's Disease Brain Sections and/or Displacement of RefA and Compound B Frozen sections with a thickness of […] from the amygdala of donors diagnosed with Braak stage V-VI Alzheimer's Disease (Braak, H.; Braak, E. Acta Neuropathol., 1991, 82, 239-259), were purchased from a commercial provider (Tissue Solutions) and kept at -80° C. until use. Displacement of RefA and Compound B Brain sections were mainly treated as described above. Test compounds were, however, incubated on the section at 250 μM in 50% ethanol for 20 min at room temperature, and then directly incubated with the fluorescent reference compounds RefA and Compound B, each at 1 μM in 50% ethanol for 20 min at room temperature. RefA and Compound B stainings were visualized using the 470 nm and 365 nm excitation filters, respectively. Images were acquired, and tangles and plaques quantified using the NIS-Element software. Only those compounds not directly staining tangles or plaques at the same wavelengths as RefA and Compound B were tested in the displacement assay. Structure of Compound B (prepared by a similar procedure described for […] in WO2010/011964): […]

[2] = tested on: tau tangles/Aβ plaques on AD brain sections; test: Assay 1: direct staining of human Alzheimer's disease brain sections (fluorescence); parameters: key to Direct staining of tau tangles/Aβ plaques on AD brain sections at 100 μM / Direct staining of tau tangles on AD brain sections at 100 μM / Direct staining of Aβ plaques on AD brain sections at 100 μM / Direct staining of tau tangles on AD brain sections (footnote a: at 250 μM): − (No); +++ (strong); ++ (good); + (weak); conditions: 100 μM compound
Summary of the method: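 Frozen […] amygdala sections from Braak V-VI AD donors, PFA-fixed, incubated with compound at 100 μM in 50% ethanol for 20 min at room temperature in the dark. Sudan Black quenched autofluorescence, then staining detected by fluorescence microscopy.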

[3] = tested on: tau tangles on AD brain section; test: Assay 1: displacement of RefA on human AD brain sections (fluorescence); conditions: for Selectivity (tau/Abeta): ratio of competition on tau tangles to competition on Aβ plaques
Protocol: Direct Binding of Compounds of this Invention to Human Alzheimer's Disease Brain Sections and/or Displacement of RefA and Compound B
Frozen sections with a thickness of […] from the amygdala of donors diagnosed with Braak stage V-VI Alzheimer's Disease (Braak, H.; Braak, E. Acta Neuropathol., 1991, 82, 239-259), were purchased from a commercial provider (Tissue Solutions) and kept at −80° C. until use.
Displacement of RefA and Compound B
Brain sections were mainly treated as described above. Test compounds were, however, incubated on the section at 250 μM in 50% ethanol for 20 min at room temperature, and then directly incubated with the fluorescent reference compounds RefA and Compound B, each at 1 μM in 50% ethanol for 20 min at room temperature. RefA and Compound B stainings were visualized using the 470 nm and 365 nm excitation filters, respectively. Images were acquired, and tangles and plaques quantified using the NIS-Element software. Only those compounds not directly staining tangles or plaques at the same wavelengths as RefA and Compound B were tested in the displacement assay.
Structure of RefA (Tago et al., J. Label. Compd. Radiopharm. 2013, DOI: 10.1002/jlcr.3133)

[4] = biological target: Tau enriched paired helical filaments (PHF) from human Alzheimer's disease (AD) brains (Homo sapiens, UniProt P10636); test: Assay 3: backscattering interferometry, dissociation constants (Kd)
Source text: Assay 3 (Backscattering Interferometry):
Determination of Dissociation Constants (Kd) of Compounds of this Invention
Enrichment of Paired Helical Filaments (PHF's) from Human Alzheimer's Disease Brains
For backscattering interferometry, Tau enriched paired helical filaments (PHF) from human Alzheimer's disease (AD) brains were used as a target. Due to the limited availability of tissues, to determine dissociation constants (Kd) of compounds of this invention to the target, two different batches of enriched PHF were used. These batches are identified as batch 6 and 7 and were prepared as follows.
PHF batch number 6 was prepared starting from 25 g frontal cortical tissue from post-mortem brains of 25 Alzheimer's disease (AD) patients which were obtained from the London Tissue Bank. The mean age at death for the AD patients was 76 years (48% females). Brain samples were characterized for Braak disease stage (Braak and Braak, 1991), with most donors displaying a stage VI. The postmortem interval between death and brain dissection was between 6 and 65 h. Human brain homogenates were prepared by SB Drug Discovery (Glasgow, Scotland, UK) from the post-mortem cortical tissue of the 25 patients). Each tissue (1 g) was homogenized with a Dounce glass homogenizer in 1.5 mL 100 mM 2-(N-morpholino) ethane-sulfonic acid (MES) pH 6.8, 0.75 M NaCl, 1 mM EGTA, 0.5 mM MgSO4, 2 mM DTT containing protease inhibitors (Complete; Roche 11697498001). For each sample, two aliquots containing 0.5 g brain homogenates in 0.75 mL were shipped to AC Immune SA on dry ice and stored at −80° C. For the enrichment of PHF, 1 aliquot per donor corresponding to total 12.5 g of brain tissue were thawed on ice and then incubated at 4° C. for 20 min to depolymerize any residual microtubules. All samples were then pooled and transferred to three polycarbonate centrifuge bottles (16×76 mm; Beckman 355603).
PHF batch number 7 was prepared starting from 32 g of parietal cortex tissue from post-mortem brain of one Alzheimer's disease (AD) patient was obtained from an external provider (Tissue Solution). The patient was a person who died for end stage AD. The brain sample was collected 5 h post-mortem and characterized for Braak disease stage (Braak and Braak, 1991) as stage VI. The method used for the PHF enrichment was modified from published procedures (Jicha et al., 1997; Rostagno and Ghiso, 2009). Around 16 g of the AD human brain was thawed on ice and homogenized with 50 ml of homogenization buffer [0.75 M NaCl in RAB buffer (100 mM 2-(N-morpholino) ethanesulfonic acid (MES), 1 mM EGTA, 0.5 mM MgSO4, 2 mM DTT, pH 6.8) supplemented with protease inhibitors (Complete; Roche 11697498001)] in a glass Dounce homogenizer. The homogenate was then incubated at 4° C. for 20 min to let depolymerize any residual microtubules, before being transferred into polycarbonate centrifuge bottles (16×76 mm; Beckman 355603). For both purifications, brain homogenates were then centrifuged at 11,000 g (12,700 RPM) in an ultracentrifuge (Beckman, XL100K) for 20 min at 4° C. using the pre-cooled 70.1 rotor (Beckman, 342184). Pellets were kept on ice. Supernatants were pooled into polycarbonate bottles and centrifuged again at 100,000 g (38,000 RPM) for 1 h at 4° C. in the 70.1 Ti rotor to isolate PHF-rich pellets, whereas soluble Tau remained in the supernatants. The pellets from the first and second centrifugations were resuspended in 120 mL of extraction buffer [10 mM Tris-HCl pH 7.4, 10% sucrose, 0.85 M NaCl, 1% protease inhibitor (Calbiochem 539131), 1 mM EGTA, 1% phosphatase inhibitor (Sigma P5726 and P0044)]. The solution was then transferred into polycarbonate centrifuge bottles (16×76 mm; Beckman 355603) and centrifuged at 15,000 g (14,800 RPM) in an ultracentrifuge (Beckman, XL100K) for 20 min at 4° C. using the 70.1 Ti rotor. […]

[5] = tested on: human brain slices from the frontal and/or temporal lobes of AD patients; test: Autoradiography with 18F-labeled compounds using human brain tissue; conditions: FIG. 14; for competition with amyloid binding compound: block with an amyloid binding compound; for competition with corresponding cold compound: blocking compound 10 μM
Protocol: Autoradiography Using Human Brain Tissue
18 micron thick frozen human brain slices and 6 micron thick human FFPE brain slices from the frontal and/or temporal lobes of AD patients were examined via autoradiography. Brain sections were equilibrated for at least 1 h in 1×PBS solution prior to use in the experiment. Each brain section was covered with a solution of the F-18 labeled tracer (200 Bq/μl, 500 μl) in 1×PBS. For blocking experiments with the corresponding 19F-labeled compound, an excess of the blocking compound was mixed with the 18F-compound to yield an end concentration of 10 μM. The brain sections were allowed to incubate with the tracer solution at room temperature for 1 h, drained afterwards and placed in a slide holder. The slides were then washed sequentially with 1×PBS for 1 min; 70% EtOH in 1×PBS for 2 min; 30% EtOH in 1×PBS for 2 min; and 1×PBS for 1 min. The slides were allowed to air-dry before being placed on Fuji imaging plates for overnight exposure. The imaging plates were scanned and the signal was measured using Fuji software to produce an autoradiographic image of the brain section. Representative examples of autoradiography studies with ^18F-178, ^18F-189, ^18F-161, ^18F-95, ^18F-168, ^18F-146, ^18F-156, ^18F-159 are shown in FIGS. 9 to 12.
The specificity of the signals was confirmed by blocking with an excess of the corresponding non-radioactive compounds.

[6] = PHF batch 6 (pooled frontal cortex, 25 AD patients), read-out: [Kd] on PHF batch 6
[7] = PHF batch 7 (parietal cortex, one AD patient), read-out: [Kd] on PHF batch 7

Chain of Tau enriched paired helical filaments (PHF) from human Alzheimer's disease (AD) brains (P10636 623-708 limits assumed): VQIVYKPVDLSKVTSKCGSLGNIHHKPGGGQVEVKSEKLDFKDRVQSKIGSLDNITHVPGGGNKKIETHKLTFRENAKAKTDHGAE

Row | Compound | Direct staining of tau tangles on AD brain sections at 100 μM [2] | Kd [4, 6] [nM] | Kd [4, 7] [nM] | other results
1 | Cn1c2ccncc2c2ccc(N3CCC(OCCF)CC3)nc21 [Example 156] | + (tangles) | 26 ± 7 |  | Competition on AD brain section Aβ plaques (1 μM Compound B vs 250 μM compound) [1]: −8%; Competition on AD brain section tau tangles (1 μM RefA vs. 250 μM compound) [3]: 72%; Selectivity (tau/Abeta) [3]: >72 fold
2 | Cn1c2ccncc2c2ccc(N3CC4(CC(OCCF)C4)C3)nc21 [Example 154] | ++ (tangles) |  | 270 ± 50 | 
3 | Cn1c2ccncc2c2ccc(N3CCC(OCC[18F])CC3)nc21 [^18F-156] |  |  |  | competition with amyloid binding compound [5]: no competition; competition with corresponding cold compound [5]: Competition observed
4 | Cn1c2ccncc2c2ccc(Nc3cc(F)ccn3)nc21 [Example 51] | +++ (tangles) |  | 260 ± 50 | 
5 | Cn1c2ccncc2c2ccc(N3CC4(CC(F)C4)C3)nc21 [Example 146] | ++ (tangles) |  | 40 ± 10 | Competition on AD brain section Aβ plaques (1 μM Compound B vs 250 μM compound) [1]: 0%
6 | Cn1c2ccncc2c2ccc(N3CCN(CCF)CC3)nc21 [168 Step B] | ++ (tangles) |  | 160 ± 30 | Competition on AD brain section Aβ plaques (1 μM Compound B vs 250 μM compound) [1]: −1%
7 | Cn1c2ccncc2c2ccc(N3CC4(CC(OCCOCCOCCF)C4)C3)nc21 [Example 153] | ++ (tangles) | 20 ± 5 |  | 
8 | Cn1c2ccncc2c2ccc(N3CCC[C@@H](F)C3)nc21 [Example 159] | + (tangles) |  | 120 ± 20 | 
9 | Cn1c2c(c3ccc(Nc4cccc(OCCF)c4)nc31)C(=O)NCC2 [drawing 1063] |  | 46 ± 9 |  | 
10 | Cn1c2ccncc2c2ccc(Nc3cc(OCCF)ccn3)nc21 [Example 63] |  | 20 ± 3 |  | 
11 | Cn1c2c(c3ccc(Nc4ccc(F)c(OCCF)c4)nc31)C(=O)NCC2 [Example 201] |  | 75 ± 12 |  | Direct staining of tau tangles/Aβ plaques on AD brain sections at 100 μM ([2]; human AD brain sections, fluorescence, cell does not say tangles or plaques): −
12 | Cn1c2ccncc2c2ccc(N3CCC(F)CC3)nc21 [Example 161] | + (tangles) | 18 ± 3 |  | Competition on AD brain section Aβ plaques (1 μM Compound B vs 250 μM compound) [1]: 14%; Competition on AD brain section tau tangles (1 μM RefA vs. 250 μM compound) [3]: 85%; Selectivity (tau/Abeta) [3]: ~6-fold
13 | Cn1c2cc[nH]c(=O)c2c2ccc(Nc3cccc(OCCF)c3)nc21 [Example 197] | + (tangles) | 100 ± 15 |  | 
14 | Cn1c2ccncc2c2ccc(N3CC[C@H]([18F])C3)nc21 [^18F-160] |  |  |  | competition with amyloid binding compound [5]: no competition; competition with corresponding cold compound [5]: Competition observed
15 | Cn1c2ccncc2c2ccc(Nc3cccc(F)n3)nc21 [Example 28] | + (tangles) |  | 400 ± 60 | 
16 | Cn1c2ccncc2c2ccc(N3CCC(OCCOCC[18F])CC3)nc21 [^18F-152] |  |  |  | competition with amyloid binding compound [5]: no competition; competition with corresponding cold compound [5]: Competition observed
17 | Cn1c2ccncc2c2ccc(Nc3ccnc(F)c3)nc21 [Example 23] |  | 38 ± 6 | 11 ± 2 | 
18 | Cn1c2ccncc2c2ccc(N3CCN(CC[18F])CC3)nc21 [^18F-168] |  |  |  | competition with amyloid binding compound [5]: no competition; competition with corresponding cold compound [5]: Competition observed
19 | Cn1c2ccncc2c2ccc(N3CCC([18F])CC3)nc21 [^18F-161] |  |  |  | competition with amyloid binding compound [5]: no competition; competition with corresponding cold compound [5]: Competition observed
20 | CN1CCc2c(c3ccc(Nc4cccc(OCCF)c4)nc3n2C)C1=O [Example 189] | ++ (tangles) | 16 ± 3 |  | 
21 | Cn1c2ccncc2c2ccc(N3[C@@H]4CC[C@H]3C[C@H](F)C4)nc21 [Example 147] | ++ (tangles) |  | 170 ± 40 | 
